Results published in ChEMBL document CHEMBL1143901, “Lead identification of 2-iminobenzimidazole antagonists of the chemokine receptor CXCR3” (Bioorg Med Chem Lett, 2008).

Columns and labels:
[1] = molecular target: T1, C-X-C chemokine receptor type 3 (Homo sapiens, UniProt P49682); test: Displacement of [125I]-CXCL10 from human CXCR3 expressed in CHO cell membrane; format: cell membranes
T1 sequence (P49682 whole entry): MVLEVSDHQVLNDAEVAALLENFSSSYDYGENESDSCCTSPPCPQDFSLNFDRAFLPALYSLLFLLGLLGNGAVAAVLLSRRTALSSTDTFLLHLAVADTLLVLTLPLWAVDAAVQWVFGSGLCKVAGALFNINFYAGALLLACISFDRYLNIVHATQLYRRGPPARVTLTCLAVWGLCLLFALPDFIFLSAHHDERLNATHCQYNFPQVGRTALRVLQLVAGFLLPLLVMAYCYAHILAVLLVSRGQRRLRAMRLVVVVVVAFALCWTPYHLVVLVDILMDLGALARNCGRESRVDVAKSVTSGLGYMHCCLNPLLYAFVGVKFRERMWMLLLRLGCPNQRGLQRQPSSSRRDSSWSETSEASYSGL

[2] = molecular target: T1, C-X-C chemokine receptor type 3; test: Antagonist activity at human CXCR3 expressed in CHO cell […] assessed as inhibition of calcium flux by FLIPR; format: functional, cell-based
[3] = molecular target: T2, C-X-C chemokine receptor type 3 (Mus musculus, UniProt O88410); test: Displacement of [125I]-CXCL10 from mouse CXCR3 expressed in CHO cell membrane; format: cell membranes
T2 sequence (O88410 whole entry): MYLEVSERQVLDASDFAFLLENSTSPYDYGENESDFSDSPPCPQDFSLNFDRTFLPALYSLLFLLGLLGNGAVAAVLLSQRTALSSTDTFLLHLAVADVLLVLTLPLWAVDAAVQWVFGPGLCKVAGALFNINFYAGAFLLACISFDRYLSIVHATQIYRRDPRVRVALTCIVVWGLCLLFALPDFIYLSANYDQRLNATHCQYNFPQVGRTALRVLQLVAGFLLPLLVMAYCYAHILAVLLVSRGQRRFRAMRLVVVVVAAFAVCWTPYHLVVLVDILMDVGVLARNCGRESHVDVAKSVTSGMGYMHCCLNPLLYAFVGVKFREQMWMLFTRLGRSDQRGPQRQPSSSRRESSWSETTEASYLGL

[4] = Metabolic stability in mouse liver microsomes assessed as half life; format: ADME, Microsome

| SMILES | IC50 [1] [nM] | IC50 [2] [nM] | IC50 [3] [nM] | half-life [4] [min] |
| --- | --- | --- | --- | --- |
| CN(CCCn1c(=N)n(CC(=O)c2ccc(Cl)cc2)c2cccc(Cl)c21)C(=O)Cc1ccccc1 | 300 | 70 | 1400 | – |
| CN(CCCn1c(=N)n(CC(=O)c2ccc(Cl)cc2)c2cccc(Cl)c21)C(=O)c1ccccn1 | 30 | 20 | 200 | – |
| CN(CCCn1c(=N)n(CC(=O)c2ccc(Cl)cc2)c2cccc(Cl)c21)C(=O)c1ccc2ccccc2c1 | 15 | 40 | 500 | 9.5 |
| CCc1cccc2c1n(CCCN(C)C(=O)Cc1ccccc1)c(=N)n2CC(=O)c1ccc(Cl)cc1 | 200 | 100 | 1800 | – |
| CN(CCCCn1c(=N)n(CC(=O)c2ccc(Cl)cc2)c2cccc(Cl)c21)C(=O)Cc1ccccc1 | 400 | 400 | – | – |
| N=c1n(CC(=O)c2ccc(Cl)cc2)c2cccc(Cl)c2n1C[C@@H]1CCCN(C(=O)c2cccc3cccnc23)C1 | 15 | 20 | 60 | – |
| CN(CCn1c(=N)n(CC(=O)c2ccc(Cl)cc2)c2cccc(Cl)c21)C(=O)Cc1ccccc1 | 400 | 300 | 1500 | – |
| CC(=O)N(C)CCn1c(=N)n(CC(=O)c2ccc(Cl)cc2)c2ccccc21 | 1300 | 3400 | – | – |
| CN(CCn1c(=N)n(CC(=O)c2ccc(Cl)cc2)c2ccccc21)C(=O)C1CCCCC1 | 500 | 900 | – | – |
| CCOC(=O)CCn1c(=N)n(CC(=O)c2ccc(Cl)cc2)c2ccccc21 | 1200 | 2500 | – | – |
| CN(CCn1c(=N)n(CC(=O)c2ccc(Cl)cc2)c2ccccc21)C(=O)c1ccccc1 | 300 | 2300 | – | – |
| CCCn1c(=N)n(CC(=O)c2ccc(Cl)cc2)c2ccccc21 | 1100 | – | – | – |
| Cn1c(=N)n(CC(=O)c2ccc(Cl)cc2)c2ccccc21 | 700 | – | – | – |
| N=c1n(CC(=O)c2ccc(Cl)cc2)c2cccc(Cl)c2n1CC1CCCN(C(=O)c2cccc3cccnc23)C1 (centres undefined) | 15 | 20 | 80 | – |
| COc1ccccc1C(=O)N(C)CCCn1c(=N)n(CC(=O)c2ccc(Cl)cc2)c2cccc(Cl)c21 | 50 | 20 | 150 | 5.4 |
| N=c1n(CC(=O)c2ccc(Cl)cc2)c2cccc(Cl)c2n1CCCN(C(=O)c1cccc2cccnc12)C1CC1 | 20 | 10 | 1100 | – |
| CN(CCn1c(=N)n(CC(=O)c2ccc(Cl)cc2)c2ccccc21)C(=O)Cc1ccccc1 | 400 | 800 | – | – |
| N=c1n(CC(=O)c2ccc(Cl)cc2)c2cccc(Cl)c2n1CC[C@@H]1CCCN1C(=O)c1cccc2cccnc12 | 8 | 20 | 40 | 7.5 |
| N=c1n(CC(=O)c2ccc(Cl)cc2)c2cccc(Cl)c2n1C[C@H]1CCCN(C(=O)c2cccc3cccnc23)C1 | 16 | 20 | 70 | – |
| CN(CCCn1c(=N)n(CC(=O)c2ccc(Cl)cc2)c2cccc(Cl)c21)C(=O)C(C)(C)C | 600 | 400 | – | – |
| CN(CCCn1c(=N)n(CC(=O)c2ccc(Cl)cc2)c2cccc(Cl)c21)C(=O)c1ccccc1 | 300 | 20 | 800 | – |
| CN(Cc1ccccc1)C(=O)CCn1c(=N)n(CC(=O)c2ccc(Cl)cc2)c2ccccc21 | 400 | 200 | – | – |
| CN(CCCn1c(=N)n(CC(=O)c2ccc(Cl)cc2)c2cccc(Cl)c21)C(=O)c1cccc2cccnc12 | 20 | 20 | 50 | 15 |
| CN(Cc1ccccc1)C(=O)Cn1c(=N)n(CC(=O)c2ccc(Cl)cc2)c2ccccc21 | 2200 | – | – | – |
| CCn1c(=N)n(CC(=O)c2ccc(Cl)cc2)c2ccccc21 | 700 | 3500 | – | – |
